US20250179114A1, “Anti-Inflammatory Compound and Use Thereof” (DUALITY BIOLOGICS (SUZHOU) CO., LTD., priority 2021, published 2025)

Legend:
glucocorticoid receptor = target: T1, glucocorticoid receptor (Homo sapiens, UniProt P04150); assay: Activity assay of glucocorticoid receptor reporter gene GRE; format: cell-based; conditions: HEK293 cells transfected with pGL5 and pBIND-GR; 24 h; Dual-Glo luciferase
T1 construct: host or cells: HEK293
T1 sequence (P04150 1-777): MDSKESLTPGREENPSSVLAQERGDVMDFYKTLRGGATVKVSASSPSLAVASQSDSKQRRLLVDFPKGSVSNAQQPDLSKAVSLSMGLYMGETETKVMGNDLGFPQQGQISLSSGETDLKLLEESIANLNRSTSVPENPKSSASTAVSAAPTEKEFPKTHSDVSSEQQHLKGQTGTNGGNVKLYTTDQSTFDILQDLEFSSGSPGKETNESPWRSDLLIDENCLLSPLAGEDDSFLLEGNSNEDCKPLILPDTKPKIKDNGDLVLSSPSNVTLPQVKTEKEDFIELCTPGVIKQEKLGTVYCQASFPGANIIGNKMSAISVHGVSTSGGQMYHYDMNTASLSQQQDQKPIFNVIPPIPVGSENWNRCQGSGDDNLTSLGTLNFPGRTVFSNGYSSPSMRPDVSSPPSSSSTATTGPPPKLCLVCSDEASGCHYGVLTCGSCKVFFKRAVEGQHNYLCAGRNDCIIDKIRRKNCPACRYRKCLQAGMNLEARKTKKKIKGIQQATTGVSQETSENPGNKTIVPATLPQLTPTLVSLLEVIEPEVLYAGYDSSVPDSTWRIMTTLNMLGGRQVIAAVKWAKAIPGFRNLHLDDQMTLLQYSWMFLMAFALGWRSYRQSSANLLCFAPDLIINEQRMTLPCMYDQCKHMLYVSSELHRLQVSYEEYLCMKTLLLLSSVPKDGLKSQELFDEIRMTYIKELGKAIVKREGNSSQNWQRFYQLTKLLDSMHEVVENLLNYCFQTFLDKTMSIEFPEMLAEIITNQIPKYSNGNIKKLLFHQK
Procedure: (§1) HEK293 cells were cultured in DMEM+10% FBS medium in a carbon dioxide incubator humidified at 37° C. with 5% carbon dioxide.
HEK293 cells were digested with trypsin, and the HEK293 cell resuspension was adjusted to 200,000 cell/mL in medium (96 well plate: 100 μL/well).
Transfection reagent mixtures were prepared according to Tables 5a and 5b below, mixed well and left to stand at room temperature for 20 min.
(§2) The prepared transfection mixtures were added to 10 mL of the cell density-adjusted resuspension, mixed well by turning the mixtures upside down, and seeded into a 96-well plate at a volume of 100 μL/well.
The 96-well plate was incubated in a humidified incubator at 37° C. with 5% carbon dioxide for 24 h.
The test plate was placed back into the incubator and incubated for 24 h.
(§3) The test plate was detected using the Dual-Glo Luciferase Assay System kit from Promega, and the fluorescence signal of Firefly Luciferase and the fluorescence signal of Renilla Luciferase were read using Enspire, respectively.
The final measurement value was a normalized value “F/R” obtained by dividing the Firefly Luciferase fluorescent signal by the Renilla Luciferase fluorescent signal.
The data were copied and pasted into Excel, and the activation rate was obtained through an equation.
The data were imported into MS Excel and subjected to curve fitting by using XLFit excel add-in version 5.4.0.8 to obtain an EC50 value.
(§4) Y is the agonism and X is the concentration of the compound.

GR = target: T2, GR (Homo sapiens, UniProt P04150); assay: GR luciferase reporter gene elution experiment; format: cell-based; conditions: supernatant removed and washed, then 24 h; for Elution time (Act %) 15 min: incubation 15 min; for Elution time (Act %) 30 min: incubation 30 min; for Elution time (Act %) 1 h: incubation 1 h; for Elution time (Act %) 2 h: incubation 2 h; for Elution time (Act %) 4 h: incubation 4 h
T2 construct: host or cells: HEK293
T2 sequence (P04150 1-777): T1 sequence (P04150 1-777)
Procedure: The compounds of the present application were evaluated for their ability to continue activation upon binding to GR.
as §1
• 1) HEK293 cells were digested with trypsin, and the HEK293 cell resuspension was adjusted to 200,000 cell/mL in medium (96 well plate: 100 μL/well). • 2) Transfection reagent mixtures were prepared according to the table below, mixed well and left to stand at room temperature for 20 min.
as §2, with “• 3) The” for “The”, “μL/well. • 4) The 96-well plate was incubated in a humidified incubator at 37° C. with 5% carbon dioxide for 24 h.” for “μL/well.”
as §3
5. Data Processing • 1) The final measurement value was a normalized value “F/R” obtained by dividing the Firefly Luciferase fluorescent signal by the Renilla Luciferase fluorescent signal. • 2) The data were copied and pasted into Excel, and the activation rate was obtained through an equation.
[formula] • 3) The data were imported into MS Excel and subjected to curve fitting by using XLFit excel add-in version 5.4.0.8 to obtain an EC50 value.
as §4

DBA/1J mice = assay: Bovine type II collagen mixed adjuvant-induced DBA/1 mouse arthritis (CIA) model; format: in vivo; conditions: Table 10-2; 0.2 mg/kg p.o.; mean
Procedure: Example 6: Assay of Biological Activity of Bovine Type II Collagen Mixed Adjuvant-Induced DBA/1 Mouse Arthritis Model
The potency of the ligand-drug conjugates (ADCs) of the present application was evaluated in a bovine collagen-induced arthritis (CIA) model.
Male DBA/1J mice were obtained from Jackson Labs. The mice were used at 6-8 weeks of age. All animals were given ad libitum access to food and water under a 12-hour light/dark cycle at constant temperature and humidity.
Bovine collagen (Chondrex, Inc. Cat: 20021) was dissolved in 0.1 M acetic acid and stored overnight in a 2-8 C refrigerator at a collagen concentration of 8 mg/mL, and an equal volume of CFA (complete Freund's adjuvant, Difco, Laurence, KS) was added into the collagen solution and emulsified in a high speed homogenizer to make an emulsion. On Day 0, animals in need of immunization were anesthetized with 2%-5% isoflurane and male DBA/J mice were immunized once with a single subcutaneous injection of 50 μL collagen/CFA emulsion at the tail root of 2-3 cm from the body. Three weeks later, namely on Day 21, the tail root was immunized twice with the same volume of collagen emulsion by the same injection method. After the second immunization, 120 animals with an average score of about 2 for the limb arthritis were selected and randomly grouped. The animals were treated by a single intraperitoneal injection of test reagent according to the experimental design after grouping. For the dexamethasone (Sphsine) treatment group, the drug was administered the day after grouping until the end of the trial. The extremities of each group were observed twice weekly for the onset of arthritis from the time of the second immunization, and the observation was continued until the end of the trial.
Scoring according to the degree of lesion (redness and swelling) was performed on a scale of 0-4 points, with a maximum score of 4 for each limb and a total maximum score of 16 for each animal's limbs. The scoring criteria are as follows: 0 points, no redness and swelling; 1 point, 1-2 red and swollen interphalangeal joints; 2 points, 3-4 red and swollen interphalangeal joints; 3 points, more than 4 red and swollen interphalangeal joints; 4 points, severe redness and swelling in toes or fingers to ankle joints or wrist joints. For joint swelling, ankle thickness of hind paw of each animal was measured with a screw micrometer before one immunization. Since the second immunization, measurements were performed 2 times per week, and changes in ankle thickness before and after the immunization were compared. After the trial was completed, all animals were anesthetized with 2-5% isoflurane and then euthanized by exsanguination.
Score AUC: area under the curve for arthritis score. The results are shown in Tables 10-1 and 10-2 and FIGS. 3a-3c.

**Q.** For `C[C@]12C=CC(=O)C=C1CC[C@H]1[C@@H]3C[C@H]4O[C@@H](c5ccn(Cc6cccc(N)c6)c5)O[C@@]4(C(=O)CO)[C@@]3(C)C[C@H](O)[C@@]12F` [Compound 7], which EC50 (glucocorticoid receptor) is on record?
**A.** 0.13 nM

**Q.** Which EC50 (glucocorticoid receptor) does the source give for `C[C@]12C=CC(=O)C=C1CC[C@H]1[C@@H]3C[C@H]4O[C@@H](c5ccn(Cc6ccc(N)cc6)c5)O[C@@]4(C(=O)CO)[C@@]3(C)C[C@H](O)[C@@]12F` [Compound 8] here?
**A.** 0.07 nM

**Q.** `C[C@]12C=CC(=O)C=C1CC[C@@H]1[C@@H]2[C@@H](O)C[C@@]2(C)[C@H]1C[C@H]1O[C@@H](c3ccc(Cc4cccc(N)c4)s3)O[C@]12C(=O)CO` [Compound 11] was tested. Which EC50 (glucocorticoid receptor) did it give?
**A.** 0.37 nM

**Q.** `C[C@]12C=CC(=O)C=C1CC[C@@H]1[C@@H]2[C@@H](O)C[C@@]2(C)[C@H]1C[C@H]1O[C@@H](c3ccc(Cc4ccc(N)cc4)s3)O[C@]12C(=O)CO` [Compound 15] was tested. Which EC50 (glucocorticoid receptor) did it give?
**A.** 0.63 nM

**Q.** For `C[C@]12C=CC(=O)C=C1CC[C@H]1[C@@H]3C[C@H]4O[C@@H](c5ccc(Cc6ccc(N)cc6)s5)O[C@@]4(C(=O)CO)[C@@]3(C)C[C@H](O)[C@@]12F` [Compound 17], which EC50 (glucocorticoid receptor) is on record?
**A.** 0.33 nM

**Q.** And the “Elution time (Act %) 15 min” value (GR)?
**A.** 1.7%

**Q.** And the “Elution time (Act %) 30 min” value (GR)?
**A.** 0.7%

**Q.** And the “Elution time (Act %) 1 h” value (GR)?
**A.** 1.3%

**Q.** And the “Elution time (Act %) 2 h” value (GR)?
**A.** 2.9%

**Q.** What about the “Elution time (Act %) 4 h” value (GR) of the same molecule?
**A.** 9.7%

**Q.** `C[C@]12C=CC(=O)C=C1CC[C@@H]1[C@@H]2[C@@H](O)C[C@@]2(C)[C@H]1C[C@H]1O[C@@H](c3cc(Cc4cccc(N)c4)cs3)O[C@]12C(=O)CO` [Compound 18] was tested. Which EC50 (glucocorticoid receptor) did it give?
**A.** 0.28 nM

**Q.** With `CC12C=CC(=O)C=C1CCC1C2C(O)CC2(C)C1CC1OC(c3ccc(Oc4cccc(N)c4)cn3)OC12C(=O)CO` [Compound 19, (6aR,6bS,7S,8aS,8bS,10R,11aR,12aS,12bS)-10-(5-(3-aminophenoxy)pyridin-2-yl)-7-hydroxy-8b-(2-hydroxyacetyl)-6a,8a-dimethyl-1,2,6a,6b,7,8,8a,8b,11a,12,12a,12b-dodecahydro-4H-naphtho[2′,1′:4,5]indeno[1,2-d][1,3]dioxol-4-one] as the molecule, how does the EC50 (glucocorticoid receptor) read?
**A.** > 1000 nM

**Q.** For `C[C@]12C=CC(=O)C=C1CC[C@@H]1[C@@H]2[C@@H](O)C[C@@]2(C)[C@H]1C[C@H]1O[C@@H](c3coc(Cc4cccc(N)c4)c3)O[C@]12C(=O)CO` [Compound 20], which EC50 (glucocorticoid receptor) is on record?
**A.** > 1000 nM

**Q.** Which EC50 (glucocorticoid receptor) does the source give for `C[C@]12C=CC(=O)C=C1CC[C@@H]1[C@@H]2[C@@H](O)C[C@@]2(C)[C@H]1C[C@H]1O[C@@H](c3cnc(Cc4cccc(N)c4)s3)O[C@]12C(=O)CO` [Compound 28, reference compound] here?
**A.** 10 nM

**Q.** For `C[C@]12C=CC(=O)C=C1CC[C@@H]1[C@@H]2[C@@H](O)C[C@@]2(C)[C@H]1C[C@H]1O[C@H](c3cnc(Cc4cccc(N)c4)s3)O[C@]12C(=O)CO` [Compound 28S], which EC50 (glucocorticoid receptor) is on record?
**A.** > 1000 nM

**Q.** Which results are given for `C[C@@H]1C[C@H]2[C@@H]3CCC4=CC(=O)C=C[C@]4(C)[C@@]3(F)[C@@H](O)C[C@]2(C)[C@@]1(O)C(=O)CO` [Dexamethasone, dexamethasone]?
**A.** Elution time (Act %) 15 min (GR): 9.4%; Elution time (Act %) 30 min (GR): 10.0%; Elution time (Act %) 1 h (GR): 7.2%; Elution time (Act %) 2 h (GR): 6.2%; Elution time (Act %) 4 h (GR): 31.9%; Arthritis score AUC (area under the curve for arthritis score) (DBA/1J mice): 24.50; Arthritis score D 0 (DBA/1J mice): 0.00; Arthritis score D 21 (DBA/1J mice): 0.00; Arthritis score D 24 (DBA/1J mice): 0.00; Arthritis score D 28 (DBA/1J mice): 0.00; Arthritis score D 31 (DBA/1J mice): 2.10; Arthritis score D 35 (DBA/1J mice): 2.90; Arthritis score Day 38 (DBA/1J mice): 1.30; Arthritis score Day 42 (DBA/1J mice): 0.50; Arthritis score Day 45 (DBA/1J mice): 0.20; Arthritis score Day 49 (DBA/1J mice): 0.00; Arthritis score Day 52 (DBA/1J mice): 0.00; Arthritis score Day 56 (DBA/1J mice): 0.00
